Test results reported in patent US11806393B2, “Flavivirus peptide sequences, epitopes, and methods and uses thereof” (priority 2017, dated 2023).

Columns and labels:
[1] = system: CD8+ T cells; experiment: IFNγ-ELISPOT of predicted H-2b-binding ZIKV peptides; assay type: cell-based, mouse; conditions: CD8+ T cells of mice infected with MR766 or FSS13025, day 7; positive: SFC per 10^6 CD8+ T cells ≥20 and stimulation index ≥2
Experimental: CD8^+ T cells were isolated by magnetic bead positive selection (Miltenyi Biotec, Germany). A total of 2×10^5 CD8^+ T cells were stimulated with 1×10^5 LPS-blast cells as antigen presenting cells (APCs) and 10 μg of individual ZIKV-derived peptide in 96-well flat-bottom plates (IMMOBILON™-P; Millipore, MA) coated with anti-mouse IFNγ monoclonal antibody (mAb) (clone AN18; Mabtech, Sweden) in triplicate. IFNγ-ELISPOT was performed as previously detailed (Elong Ngono et al., 2016). Positive peptides were those with a number of spot-forming cells (SFC) per 10^6 CD8^+ T cells ≥20 and a stimulation index ≥2 based on the negative control (DMSO). […]
The following results are with reference to FIG. 3A and FIG. 3B, where five-week-old LysMCre^+IFNAR^fl/fl were infected retro-orbitally with 10^4 FFU of ZIKV MR766 or FSS13025. […] A total of 244 peptides from ZIKV strains predicted to bind H-2Kb and H-2db with high affinity were screened. Two independent experiments for each ZIKV strain (n=5 mice for each experiment) were performed in triplicate per peptide. The data are expressed as the mean of spot forming cells (SFC) per 10^6 CD8^+ T cells, and error bars are represented as SEM. One-way ANOVA was used to compare the mean of each peptide with the control (DMSO) ([…]). […] The dotted line corresponds to the average amount of IFNγ produced by MOCK mice when stimulated with positive ZIKV-derived peptides (0.19% of IFNγ+CD8^+ T cells).

[2] = system: CD8+ T cells; experiment: IFNγ ELISPOT, ZIKV-infected Ifnar-/- HLA-A*0101 transgenic mice; assay type: cell-based, mouse; conditions: HLA-A*0101 mice; for SFC/10^6 CD8+ T cells, FSS13025: 7 days after ZIKV FSS13025; for SFC/10^6 CD8+ T cells, MR766: 7 days after ZIKV MR766; for immunodominance in IFNγ ELISPOT: immunodominant: >500 SFCs/10^6 CD8+ T cells, shared by both ZIKV strains
Experimental: Two ZIKV strains, MR766 (Uganda, 1947) and FSS13025 (Cambodia, 2010), were obtained from the World Reference Center for Emerging Viruses and Arboviruses (WRCEVA). The mouse-adapted DENV2 strain S221 is a triple-plaque purified clone derived from DENV2 D2S1038. Both ZIKV and DENV2 were amplified in C6/36 mosquito cells, and viral titers were measured using baby hamster kidney (BHK)-21 cell-based focus forming assay (FFA). For epitope screening, 5-week old mice (female or male) were infected retro-orbitally (R.O.) with either 1×102 FFU of ZIKV FSS13025 or ZIKV MR766, or 2×10^4 FFU of DENV2 S221 in 200 μl 10% FBS/PBS. Seven days after infection, CD8^+ T cells were isolated from splenocytes and used for ELISPOT assay, while the splenocytes were directly used for ICS assay. Additionally, 5-week old mice were inoculated I.P. with 2×10^3 FFU of DENV2 S221 for 4 weeks.
CD8^+ T cells were isolated from splenocytes using magnetic bead positive selection (Miltenyi Biotec, Germany) 7 days after virus infection. 2×10^5 CD8^+ T cells were stimulated with 1×10^5 LPS-blasts loaded with 10 μg of individual peptide in 96-well flat-bottom plates (IMMOBILON™-P; Millipore, Bedford, Mass.) that were coated with anti-IFNγ mAb (clone AN18; Mabtech, Stockholm, Sweden) in triplicate. Concanavalin A (ConA) was used as positive control. After 20 hours of incubation, biotinylated anti-mouse IFNγ mAb (R4-6A2; Mabtech), followed by ABC peroxidase (Vector Laboratories, Burlingame, Calif., USA) and then 3-amino-9-ethylcarbazole (Sigma-Aldrich, St. Louis, Mo., USA) were added into the wells. […] A peptide inducing a magnitude of >500 SFCs/10^6 CD8^+ T cells was considered as an immunodominant peptide.
The following results are with respect to FIG. 9, where IFNγ ELISPOT was performed using CD8+ T cells isolated from Ifnar^−/− HLA-B*0702 transgenic mice (a and b) and Ifnar^−/− HLA-A*0101 transgenic mice (d and e) 7 days after retro-orbital (R.O.) infection with 1×10^2 FFU of ZIKV strain FSS13025 or MR766. Two independent experiments performed in triplicate were averaged and the error bars represent the SEM. The data are expressed as the mean number of spot forming cells (SFC) per 10^6 CD8^+ T cells. The criteria for positivity were net SFC per 10^6 cells of >20, and a stimulation index of >2.0 when compared with the negative control. Dotted lines represent the cutoff value. * Indicates a positive response. All positive peptides were grouped according the corresponding ZIKV protein (c and f); white and black bars are the total IFNγ response of all identified positive peptides from an indicated protein; numbers in parentheses are the number of positive peptides in this protein. ConA denotes Concanavalin A.

Row | Substance | Strains (ZIKV strain for which the peptide induced a positive T cell response, IFNγ-ELISPOT) [1] | SFC/10^6 CD8+ T cells, FSS13025 [2] | SFC/10^6 CD8+ T cells, MR766 [2] | immunodominance in IFNγ ELISPOT [2]
1 | 28 (VSFIFRAN) [compound 28] | MR766/FSS | – | – | –
2 | 29 (VVIKNGSYV) [compound 29] | MR766/FSS | – | – | –
3 | DVEAWRDRY [FSS/MR-NS123-31] | – | 583 SFC/10^6 CD8+ T cells | 260 SFC/10^6 CD8+ T cells | immunodominant
4 | ELDPPFGDSY [FSS/MR-E377-386] | – | 286 SFC/10^6 CD8+ T cells | – | –
5 | ETDENRAKV [FSS/MR-E159-167] | – | 512 SFC/10^6 CD8+ T cells | 516 SFC/10^6 CD8+ T cells | immunodominant
6 | FSDLYYLTM [FSS/MR-E198-206] | – | 398 SFC/10^6 CD8+ T cells | 388 SFC/10^6 CD8+ T cells | –
7 | FTDPSSIAA [FSS/MR-NS3272-280] | – | – | 286 SFC/10^6 CD8+ T cells | –
8 | GLDFSDLYY [FSS/MR-E195-203] | – | 993 SFC/10^6 CD8+ T cells | 647 SFC/10^6 CD8+ T cells | immunodominant
9 | HMCDATMSY [FSS/MR-prM40-48] | – | 288 SFC/10^6 CD8+ T cells | – | –
